Experimental findings from patent US10870875B2, “Metalloprotein compositions” (Commonwealth Scientific and Industrial Research Organisation, priority 2014, dated 2020) are described below.

Assay [1] concerns the target T1, Apis mellifera AmelF3 (SEQ ID NO: 39) variant Tyr76His (Y76H) (Apis mellifera, UniProt A0ACM8QI31, Y95H).
T1 construct: solution and film
T1 sequence (A0ACM8QI31 20-335 Y95H): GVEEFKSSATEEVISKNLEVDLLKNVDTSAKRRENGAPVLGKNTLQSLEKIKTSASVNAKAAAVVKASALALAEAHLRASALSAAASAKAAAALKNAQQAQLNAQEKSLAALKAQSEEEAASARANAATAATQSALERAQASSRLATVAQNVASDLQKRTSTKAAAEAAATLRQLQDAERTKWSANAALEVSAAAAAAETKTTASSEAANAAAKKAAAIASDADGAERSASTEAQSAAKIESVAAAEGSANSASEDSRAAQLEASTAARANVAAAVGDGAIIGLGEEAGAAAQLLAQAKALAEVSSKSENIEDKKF
In words: Binding of haem b to AmelF3 Tyr76His. Particulars: UV/Vis, in solution and film. As to the method: (§1) Site directed mutagenesis of honeybee silk proteins was carried using methods known to the person skilled in the art. For example, to generate AmelF3 Tyr76Ala, the forward primer 5′-[…]-3′ (SEQ ID NO: 80) with the corresponding reverse primer was employed and site directed mutagenesis was carried out using Pfx 50 DNA polymerase from Invitrogen following the Pfx50 manufactures instructions. All AmelF3 mutants were expressed and purified using a similar procedure as the unmodified AmelF3 silk protein. To generate AmelF3 Tyr76His, the forward primer 5′-[…]-3′ (SEQ ID NO: 81) with the corresponding reverse primer was employed. To generate AmelF3 Ala97His, the forward primer 5′-[…]-3′ (SEQ ID NO: 82) was used.
The present inventors also mutated Tyr76 to a histidine and investigated the effect the single amino acid substitution had on binding to haem b. […] The sharp peak observed at around 400 nm is indicative of the coordination of an amino acid residue to the iron haem centre.
A coordinating His residue (His97) was introduced into AmelF3 with Y76H substitution in the a-position of the coiled-coil.

The target of assay [2] is T2, Apis mellifera AmelF3 (SEQ ID NO: 39) variant Y76A A97H (Apis mellifera, UniProt A0ACM8QI31, A116H/Y95A).
T2 sequence (A0ACM8QI31 20-335 Y95A/A116H): T1 sequence (A0ACM8QI31 20-335 Y95H) with H76A, A97H
The assay is described as follows: Binding of haem to AmelF3 Y76A A97H. Particulars: sharp Soret peak at 413 nm. The procedure: as §1
A coordinating His residue was introduced into AmelF3 with Y76A in the a-position of the coiled-coil.

The target of assay [3] is T3, Oecophylla smaragdina silk fibroin 3 (GA3), SEQ ID NO: 11 (Oecophylla smaragdina, UniProt A8IM91).
T3 construct: film
T3 sequence (A8IM91 20-395): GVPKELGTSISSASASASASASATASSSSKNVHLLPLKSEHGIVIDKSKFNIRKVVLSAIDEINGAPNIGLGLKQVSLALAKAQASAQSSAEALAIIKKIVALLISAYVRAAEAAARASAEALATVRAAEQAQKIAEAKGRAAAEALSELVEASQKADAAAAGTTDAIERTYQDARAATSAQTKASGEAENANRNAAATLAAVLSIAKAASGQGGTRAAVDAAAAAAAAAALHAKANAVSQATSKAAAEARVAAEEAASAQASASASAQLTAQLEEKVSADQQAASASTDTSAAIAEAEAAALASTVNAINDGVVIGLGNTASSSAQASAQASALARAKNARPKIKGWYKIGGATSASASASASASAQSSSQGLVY
The assay is described as follows: Haem b leached into green ant silk GA3 film. The assay is classed as binding. The note with it: signal at around 400 nm. The text has this:
Full length, recombinant honeybee silk proteins (AmelF3) without affinity purification tags, were produced by fermentation in Escherichia coli as described in Weisman et al. (2010). Full length, recombinant Weaver Ant/Green Ant (Oecophylla smaragdina) silk proteins (GA1, GA2, GA3, GA4) without affinity purification tags, were produced by fermentation in Escherichia coli following the same procedures as outlined in Weisman et al. (2010).
Alternatively, haem b was ‘leached’ into a pre-formed film. The AmelF3 material was formed as described in example 1. The silk material was soaked in a solution of haem b (0.5 mg/mL; haem b in excess) in 70% methanol solution for between 1 and 48 hours followed by washing with 70% methanol to remove any unbound haem b and dried at room temperature.
Transparent films from the Green Ant (Oecophylla smaragdina) (GA1-4) silk proteins were prepared as described above. Haem b in 70% methanol was leached into the preformed Green Ant silk film as described at Example 3. UV/Vis spectra were collected for Green Ant silk film after haem b had been leached.

Positions count from the first letter of the chain named.

Take `C=CC1=C(C)c2cc3[nH]c(cc4nc(cc5[nH]c(cc1n2)c(C)c5CCC(=O)O)C(CCC(=O)O)=C4C)c(C)c3C=C.[Fe]` [haem b]: the “binding to silk protein (in words)” value in assay [1] is “bound haem b via a co-ordinate bond”. The “haem coordination (in words)” value in assay [2] is listed as “indicative of histidine coordination”. Also, in assay [3], the “haem binding (in words)” value is on record as “strongly bound haem”.
